Assay results reported in the NIST ThermoML archive (doi:10.1016/j.fluid.2018.01.015).
Numbers after ± are expanded uncertainties.

Experiments:
[1] = Crystal; DTA
[2] = Molar enthalpy of transition or fusion; settings: Crystal; DSC

SMILES: Cc1cc(C)c(C(=O)P(=O)(c2ccccc2)c2ccccc2)c(C)c1 [(2,4,6-trimethylbenzoyl) diphenylphosphine oxide]
- Normal melting temperature [1]: 92.66 ± 0.39 °C
- Molar enthalpy of transition or fusion [2]: 6.03 ± 0.172 kcal/mol
